Laboratory results from publication PMC7156612, “Olinciguat, an Oral sGC Stimulator, Exhibits Diverse Pharmacology Across Preclinical Models of Cardiovascular, Metabolic, Renal, and Inflammatory Disease” (Frontiers in Pharmacology, 2020).
“And” between values parts separate entries of the source, which are not always exact repeats. Equal entries are not always repeated. Where two headings read alike, the source gives them in different places.

Columns and labels:
normotensive Wistar rats = experiment: Arterial hemodynamics by telemetry in normotensive Wistar rats; assay type: in vivo, rat
Procedure: (§1) The Dataquest A.R.T.™ acquisition and analysis system (Data Sciences International [DSI], St. Paul, MN) was employed to monitor and analyze hemodynamic data from conscious, freely moving rats surgically implanted with a telemetry pressure transmitter (PA-C40). Telemetry transmitter implantation was performed on rats under sterile conditions. Rats were anesthetized with isoflurane and body temperature was maintained with a heating pad during surgery. A laparotomy was performed to expose the abdominal aorta. The catheter tip of the telemetry transmitter was inserted into the abdominal aorta and secured with a 5-0 silk suture (Ethicon, Inc., Somerville, NJ). The abdominal incision was closed with uninterrupted suture (4-0 silk, Ethicon, Inc., Somerville, NJ) and the telemetry transmitter was placed in the abdominal cavity and secured to the abdominal wall. Approximately 100 µl of 0.25% marcaine was applied directly to the closed abdominal wall, and the skin was then closed with suture (4-0 Vicryl® absorbable, Ethicon, Inc., Somerville, NJ). Buprenorphine (0.05 mg/kg/day, subcutaneous [s.c.]) was administered immediately after the surgery for postoperative pain relief. After recovery from anesthesia, rats were returned to their home cages, placed on DSI receivers, and allowed a 5- to 14-day recovery period. Arterial hemodynamics were measured continuously and recorded throughout the study. For acute studies, analysis was based on hourly averages, for chronic studies, analysis was based on daily or weekly averages.
(§2) Spontaneously hypertensive rats (SHRs) (n=6, male, 230–250 g, 14 weeks of age) and Wistar rats (n=6, male, 230–250 g, 12 weeks of age) were implanted with telemetry transmitters as described above. Olinciguat was formulated as a suspension in a vehicle containing 0.5% methylcellulose and 0.2% Tween. Rats were p.o. dosed with a dosing volume of 5 ml/kg. […] Using plasma from tail vein, olinciguat plasma concentrations were determined at 1, 6, and 24 h post-dose on day 4 and reported as the mean from Wistar (n=3) and SHR (n=3). Hemodynamics were recorded hourly during a 24-h baseline period and over the first 3 days of dosing.
(§3) Maximum change from baseline of mean arterial pressure (MAP) was calculated using the 24-h pre-first dose average subtracted from the lowest MAP value recorded within 2 h following dosing. The 1-h post-dose change from baseline heart rate (HR) was calculated using the 3-h pre-first dose average subtracted from the 1-h post-dose average.
(§4) In the hemodynamic study in Wistar and SHR, hourly MAP data were analyzed using a repeated measures two-way ANOVA, with time and treatment group as independent variables. Significance at each timepoint was determined as compared to the vehicle control using a Dunnett's post-hoc test.

[1] = Pharmacokinetics in Sprague-Dawley rats; assay type: in vivo; settings: rat, plasma; for bioavailability / Cmax / Tmax / half-life: po; for bioavailability: 1 mg/kg; for Cmax / Tmax / half-life: p.o. 1 mg/kg
Procedure: Male (n=12, 2 groups of 6) and female (n=12, 2 groups of 6) Sprague-Dawley rats (275–300 g) with indwelling jugular vein cannulae were fasted overnight prior to dosing. Animals were dosed either intravenously (i.v.) via bolus injection through a percutaneous catheter into a lateral tail vein or orally (p.o.) via gavage. Olinciguat was formulated in 60% polyethylene glycol (PEG) 400/40% water at 0.3 mg/ml (0.3 mg/kg) for i.v. dosing, and at 1 mg/ml (1 mg/kg) in 100% PEG 400 for p.o. dosing. Chow was returned to animals 4 h postdose.
Blood from i.v. and p.o. dosed rats was collected at 16 timepoints (2 groups of rats, 8 timepoints per group) over 24 h. Samples were collected into potassium ethylenediamine tetraacetic acid (K2EDTA) tubes, centrifuged (3,500 rpm for 10 min) to yield plasma. In the pharmacokinetic studies and in all in vivo studies, olinciguat plasma concentrations were determined by LC-MS/MS. Pharmacokinetic (PK) parameters were calculated by noncompartmental analysis using sparse sampling in Phoenix® WinNonLin® v.6.3 (Certara, Princeton, NJ).

[2] = Plasma protein binding (equilibrium dialysis), rat; assay type: in vitro ADME; settings: both sexes, Sprague Dawley, 1 and 10 μM, equilibrium dialysis 18 h, no gender difference, read-out: bound to plasma proteins
Procedure: Concentrated (10 mM) DMSO stock solutions of olinciguat were diluted to 1 and 10 μM in 2.5 ml of rat (male and female Sprague Dawley) and human plasma. Concentrated [^14C]-labeled olinciguat (1 μl,1 mCi/ml stock concentration) was spiked into each sample and mixed by vortexing. Triplicate 500 μl aliquots of plasma containing [^14C]-labeled olinciguat were transferred to a Rapid Equilibrium Dialysis system and dialyzed (molecular weight cut-off ~8000 Da) against 500 μl of phosphate-buffered saline (PBS) at room temperature for 18 h. Radioactivity of [^14C]-labeled olinciguat in PBS and plasma samples was measured using liquid scintillation counting.

[3] = system: spontaneously hypertensive rats (SHR); experiment: Arterial hemodynamics by telemetry in spontaneously hypertensive rats; assay type: in vivo, rat
Procedure: as §1, §2, §3, §4

[4] = 10 mg/kg p.o. QD, day 3, 10 mg/kg

- Vd ([1]; both sexes, Sprague-Dawley, intravenous, 0.3 mg/kg, male and female rats, mean, read-out: mean pharmacokinetic volume of distribution): 1 L/kg
- bioavailability ([1]; both sexes, Sprague-Dawley, rats, sexes not separated (discussion), read-out: oral bioavailability (rats, overall)): 40%
- clearance ([1]; iv, female Sprague Dawley rats, i.v. 0.3 mg/kg): 5.6 mL/min/kg
- Vd ([1]; iv, female Sprague Dawley rats, i.v. 0.3 mg/kg, read-out: Vss): 0.9 L/kg
- clearance ([1]; iv, male Sprague Dawley rats, i.v. 0.3 mg/kg): 11.3 mL/min/kg
- Vd ([1]; iv, male Sprague Dawley rats, i.v. 0.3 mg/kg, read-out: Vss): 1.1 L/kg
- bioavailability ([1]; female Sprague Dawley rats, read-out: Oral bioavailability): 45%
- bioavailability ([1]; male Sprague Dawley rats, read-out: Oral bioavailability): 36%
- Cmax ([1]; female Sprague Dawley rats): 198 ng/mL
- Tmax ([1]; female Sprague Dawley rats): 3 h
- half-life ([1]; female Sprague Dawley rats): 3.9 h
- Cmax ([1]; male Sprague Dawley rats): 96.4 ng/mL
- Tmax ([1]; male Sprague Dawley rats): 1 h
- half-life ([1]; male Sprague Dawley rats): 3.5 h
- fraction unbound at 18 h [2]: 0.01
Structure (SMILES): NC(=O)[C@](O)(CNc1nc(-c2cc(-c3ccon3)n(Cc3ccccc3F)n2)ncc1F)C(F)(F)F [olinciguat, (R)-3,3,3-trifluoro-2-(((5-fluoro-2-(1-(2-fluorobenzyl)-5-(isoxazol-3-yl)-1H-pyrazol-3-yl)pyrimidin-4-yl)amino)methyl)-2-hydroxypropanamide]
- MAP vs vehicle-treated rats (normotensive Wistar rats; 1 mg/kg p.o. QD): not significantly different from vehicle at any time
- MAP vs vehicle-treated rats (normotensive Wistar rats; 3 mg/kg p.o. QD): lower only on the second and third day of dosing
- MAP vs vehicle-treated rats (normotensive Wistar rats; 10 mg/kg p.o. QD): lower on all 3 days of dosing
- maximum absolute change in MAP (normotensive Wistar rats; [4]): −11 ± 3 mmHg and −11^b mmHg
- MAP vs vehicle-treated rats ([3]; 1 mg/kg p.o. QD): only lower than vehicle-treated rats on the third day of dosing
- MAP vs vehicle-treated rats ([3]; 3 mg/kg p.o. QD, 6-h period following dosing on all 3 days): significantly lower than vehicle-treated rats
- MAP vs vehicle-treated rats ([3]; 10 mg/kg p.o. QD, 6-h period following dosing on all 3 days): significantly lower than vehicle-treated rats
- maximum absolute change in MAP [3, 4]: −26 ± 2 mmHg and −26^b mmHg
